The text below walks through data of US20220193202A1, “PARATHYROID HORMONE DERIVATIVE IN DIMERIC FORM OF PARATHYROID HORMONE FRAGMENT AND PHARMACEUTICAL COMPOSITION FOR PREVENTION OR TREATMENT OF BONE DISEASES COMPRISING SAME” (GACHON UNIVERSITY OF INDUSTRY-ACADEMIC COOPERATION …, priority 2019, published 2022).

What all share (format): in vivo, C57BL6 male mice
The subject of assay [1] is fracture animal model. As to the kind of experiment: IVIS imaging of fracture site in fracture animal model. Particulars: 100 μg/kg subcutaneously daily Day 1 to Day 13 after fracture surgery; imaged Day 4, 7, 11, 14. As to the method:
Five 10-week-old C57BL6 male mice were prepared for each group, and fracture model surgery was performed in the following manner (see FIG. 3). In particular, 9 days before (-D9) and 6 days before (-D6) prior to fracture model surgery (DO) in mice of each group, infrared fluorescent dyes (IR Dyes, Infra-Red dyes) were administered through a tail vein of the mice. Then, the mice were general anesthetized using isoflurane containing oxygen (O2) for fracture model surgery, and a left hind limb was shaved and sterilized for surgery. An incision of about 15 mm was made in the left hind limb in the longitudinal direction, and the tibia was exposed by obtuse-angled resection of the muscle. Then, transverse osteotomy was performed using disc-shaped dental steel bars at the midpoint of the tibia. After repositioning the fracture site, the entire length of a bone marrow lumen was made internally stabilized. […] On Day 4, Day 7, Day 11, and Day 14 after the surgery, fracture sites of mice per each group were photographed and analyzed using IVIS Lumina XR (Caliper Life Sciences, USA) equipment and Living Image software. The results as shown in FIG. 4 confirmed that when the dimeric [[…]]PTH(1-34) was administered, an intensity of fluorescence was increased at the site where the fracture was healing. […] Therefore, intensifying of the fluorescence means that bone formation increased.

The test system of assay [2] is fracture animal model. The assay is described as follows: 3D-micro CT of tibia including fracture site (callus formation). Particulars: 100 μg/kg subcutaneously daily Day 1 to Day 13; tibia collected Day 14. As to the method:
Five 10-week-old C57BL6 male mice were prepared for each group, and fracture model surgery was performed in the following manner (see FIG. 3). In particular, 9 days before (-D9) and 6 days before (-D6) prior to fracture model surgery (DO) in mice of each group, infrared fluorescent dyes (IR Dyes, Infra-Red dyes) were administered through a tail vein of the mice. Then, the mice were general anesthetized using isoflurane containing oxygen (O2) for fracture model surgery, and a left hind limb was shaved and sterilized for surgery. An incision of about 15 mm was made in the left hind limb in the longitudinal direction, and the tibia was exposed by obtuse-angled resection of the muscle. Then, transverse osteotomy was performed using disc-shaped dental steel bars at the midpoint of the tibia. After repositioning the fracture site, the entire length of a bone marrow lumen was made internally stabilized. After washing it with saline, the skin was sutured with nylon sutures. In particular, the fracture animal models prepared in Example 2 was divided into a control group, PTH(1-34), monomeric [[…]]PTH(1-34), and dimeric [[…]]PTH(1-34) administration groups (n=5 animals per group). […] The collected shin bones were imaged and analyzed using 3D-micro CT (Microfocus X-ray CT system SMX-90CT, Shimadzu, Japan) equipment.

The subject of assay [3] is trabecular bones of the femurs. The assay is described as follows: micro-CT of femur of opposite limb (trabecular bone formation). As to conditions: 100 μg/kg subcutaneously daily Day 1 to Day 13, Day 14, compared with control, PTH(1-34) and monomeric [Cys25]PTH(1-34) groups. As to the method: Five 10-week-old C57BL6 male mice were prepared for each group, and fracture model surgery was performed in the following manner (see FIG. 3). In particular, 9 days before (-D9) and 6 days before (-D6) prior to fracture model surgery (DO) in mice of each group, infrared fluorescent dyes (IR Dyes, Infra-Red dyes) were administered through a tail vein of the mice. Then, the mice were general anesthetized using isoflurane containing oxygen (O2) for fracture model surgery, and a left hind limb was shaved and sterilized for surgery. An incision of about 15 mm was made in the left hind limb in the longitudinal direction, and the tibia was exposed by obtuse-angled resection of the muscle. Then, transverse osteotomy was performed using disc-shaped dental steel bars at the midpoint of the tibia. After repositioning the fracture site, the entire length of a bone marrow lumen was made internally stabilized. After washing it with saline, the skin was sutured with nylon sutures. In particular, the fracture animal models prepared in Example 2 was divided into a control group, PTH(1-34), monomeric [[…]]PTH(1-34), and dimeric [[…]]PTH(1-34) administration groups (n=5 animals per group). […] In addition, the femurs of an opposite limb of the animal models were collected and analyzed by micro-CT equipment to evaluate the degree of bone formation in the trabecular bones of the femurs.

As for “dimeric [Cys25]PTH(1-34): Dimeric form of parathyroid hormone fragment PTH(1-34) with Arg25 substituted by Cys (SEQ ID NO: 1), disulfide bond between cysteines”, in assay [1], the “bone formation, average of photon flux (FIG. 5)” value is given as “significantly increased” and the “intensity of fluorescence at the site where the fracture was healing (IVIS imaging, FIG. 4)” value is recorded as “increased”. Further, in assay [2], the “callus formation (3D-micro CT, FIG. 6)” value is reported as “promoted” and the “callus volume (FIG. 7)” value is reported as “notably increased”. In addition, the “bone formation in the trabecular bones of the femurs (micro-CT, FIG. 8)” value in assay [3] is given as “greatest increase”.
